# Assay results: article PMC6150379, “Novel Triazole Hybrids of Betulin: Synthesis and Biological Activity Profile” (Molecules : A Journal of Synthetic Chemistry and Natural …, 2017)
# Read-outs that look alike come from different tables or passages of the source.
# Tests used:
# [1] = Cytotoxicity assay (MTT), determination of CC50; settings: human
# Procedure: (§1) The cytotoxic effect of compounds on A549 cells was determined by the MTT method, as previously described [36]. The MTT assay is the enzyme-based method, which use the 3-(4,5-dimethylthiazol-2-yl)-2,5-diphenyltetrazolium bromide as a reductive coloring agent. Briefly, subconfluent monolayers of A549 cells (2 × 10^4 cell/well in Dulbecco’s Minimal Essential Medium (DMEM) supplemented with 5% fetal bovine serum (FBS), antibiotics (100 U/mL penicillin and 100 μg/mL streptomycin), and 2 mM L-glutamine (all from Sigma Aldrich, St. Louis, MO, USA) were incubated in 96-multi-well plates in the presence of dilutions of the compounds ranging from 100 μg/mL to 0.5 μg/mL, in triplicate for 48 h at 37 °C in a humidified atmosphere with 5% CO2. After 48 h, 20 μL of MTT solution (Promega, Madison, WI, USA) was added to each well, and the microplates were kept at 37 °C/5% CO2 for 3 h. Then, the solubilization/stop solution containing SDS-HCl (100 μL/well) was added, and the absorbance values of the wells were measured at 570 nm using a 96-well plate reader (Multiskan RC spectrophotometer, Thermo Labsystems, Waltham, MA, USA). Cell viability (%) was calculated for each concentration as Abs treated/Abs control × 100, where Abs treated and Abs control are the absorbance readings for the wells with and without the tested compounds, respectively. The 50% cytotoxic concentration (CC50) was defined as the concentration that reduced cell viability by 50% with respect to controls without drugs. The CC50 value was calculated from the corresponding dose–response curves.
# [2] = test system: C-32 (human amelanotic melanoma); test: Cytotoxic activity, WST-1 assay; format: cell-based; settings: C-32, 72 h, Neg = negative in the concentration used; for IC50: Homo sapiens
# [3] = test system: MCF-7 (human adenocarcinoma); test: Cytotoxic activity, WST-1 assay; format: cell-based; settings: MCF-7, 72 h, Neg = negative in the concentration used; for IC50: Homo sapiens, MCF7
# [4] = test system: Colo-829 (human malignant melanoma); test: Cytotoxic activity, WST-1 assay; format: cell-based; settings: Homo sapiens; Colo-829, 72 h; Neg = negative in the concentration used
# [5] = test system: T47D (human ductal carcinoma); test: Cytotoxic activity, WST-1 assay; format: cell-based; settings: 72 h, Neg = negative in the concentration used; for IC50: Homo sapiens
# [6] = test system: SKOV-3 human ovarian cancer cell line; test: Inhibition of tumor cell proliferation (MTT); settings: SK-OV-3, 96 h, read-out: Max. Inhibition (% of Control)
# Procedure: Antiproliferative activities of the compounds were measured by the MTT assay using A549 cells and a human ovarian cancer cell line SKOV-3 (adenocarcinoma ATCC® HTB77™). A total of 2 × 10^3 cells in DMEM medium supplemented with 5% FBS were placed in each well of a 96-well flat-bottom plate. After 24 h of incubation at 37 °C in 5% CO2, the growth medium was replaced by media containing different concentrations of the derivatives. Control cultures received cisplatin 0.1–10 μg/mL, and blank wells contained 100 μL of growth medium with no cells. After 96 h of incubation, cell proliferation was determined by the colorimetric MTT assay (570 nm) reading for each concentration compared with the control. At least three replicates for each sample were used to determine the cell proliferation.
# [7] = test system: cytopathogenic bovine orphan virus (ECBO) strain LCR-4; test: Time of addition assay (post-adsorption), CPE/MTT in A549 cells; format: cell-based, cytopathogenic bovine orphan virus (BEV-1); settings: for EC50: A549; for antiviral activity: ECBO, A549 cells, CC20 concentration
# SNB-19 (glioblastoma) = test: Cytotoxic activity, WST-1 assay; format: cell-based, human; settings: SNB-19, 72 h, Neg = negative in the concentration used; for IC50: Homo sapiens
# [8] = test system: herpes simplex virus type-1 (HSV-1); test: Time of addition assay, CPE/MTT in A549 cells; format: cell-based; settings: HSV-1, A549 cells, CC20 concentration
# [9] = test system: vesicular stomatitis virus (VSV); format: cell-based; settings: A549 cells, CC20 concentration
# [10] = test system: human adenovirus type-5 (HAdV-5); test: Time of addition assay, CPE/MTT in A549 cells; format: cell-based; settings: for antiviral activity: HAdV-5, A549 cells, CC20 concentration
# in vitro = settings: human
# Procedure: as §1
# [11] = test system: Klebsiella pneumoniae ATCC 700603; test: Broth microdilution method (MIC, MBC)
# Procedure: (§2) The minimal inhibitory concentration (MIC) and minimal bactericidal concentration (MBC) were determined by the broth microdilution method, according to the Clinical and Laboratory Standards Institute [32, 33].
# (§3) The antibacterial and antifungal activities of compounds were evaluated using the following strains: Staphylococcus aureus (ATCC 25923), Enterococcus faecalis (ATCC 29212), Escherichia coli (ATTC 25922), Pseudomonas aeruginosa (ATTC 27853), Klebsiella pneumoniae ATTC 700603), and Candida albicans (ATTC 10231). Cells were cultured for 24–48 h on Columbia agar or Sabouraud agar (C. albicans) in a saline solution (0.9% NaCl) and adjusted to a 0.5 McFarland density standard (1.5 × 10^8 CFU/mL). The final density of microorganisms was approximately 3 × 10^5 CFU/mL. The solutions of compounds were added to the medium at various concentrations (0.06 μM–2 mM). […] The experiments were performed in triplicate.
# [12] = test system: Escherichia coli ATCC 25922; test: Broth microdilution method (MIC, MBC)
# Procedure: as §2, §3
# [13] = selectivity index, ratio of CC50 to EC50, ECBO in A549 cells
structure (smiles),measurement,setting,value
"C=C(C)[C@@H]1CC[C@]2(CO)CC[C@]3(C)[C@H](CC[C@@H]4[C@@]5(C)CC[C@H](O)C(C)(C)[C@@H]5CC[C@]43C)[C@@H]12 [Betulin 1, Betulin]",CC50 at 48 h,[1],18.5 µg/mL
same,IC50 ± SD,[2],Neg
same,IC50 ± SD,[3],Neg
same,IC50,[4],15.3 ± 2.2 µM
same,IC50 ± SD,[5],Neg
same,inhibition at 2.5 µg/mL,[6],30%
same,EC50,[7],0.5 µg/mL
same,SI,[7]; [13],37.0
same,SI,"[7]; selectivity index, ratio of CC50 to EC50, ECBO in A549 cells, listed as betulin 1",37
same,IC50,SNB-19 (glioblastoma),17.7 ± 1.2 µM
"C#CC(=O)OC[C@]12CCC(C(=C)C)C1C1CCC3[C@@]4(C)CC[C@H](O)C(C)(C)C4CC[C@@]3(C)[C@]1(C)CC2 (some centres unmarked) [Compound 3, 28-O-propynoylbetulin]",IC50,[2],16.7 ± 0.8 µM
same,IC50,[3],102 ± 1.4 µM
same,antiviral activity,[8],did not exhibit antiviral activity
same,IC50,[4],1.7 ± 0.08 µM
same,IC50,[5],110.8 ± 0.9 µM
same,antiviral activity,[9],did not exhibit antiviral activity
same,antiviral activity,[7],did not exhibit antiviral activity
same,IC50,SNB-19 (glioblastoma),4.2 ± 0.3 µM
same,antiviral activity,[10],did not exhibit antiviral activity
"C#CC(=O)OC[C@]12CCC(C(=C)C)C1C1CCC3[C@@]4(C)CC[C@H](OC(=O)C#C)C(C)(C)C4CC[C@@]3(C)[C@]1(C)CC2 (some centres unmarked) [Compound 4, 3,28-O,O’-di(propynoyl)betulin]",IC50,[2],121 ± 4.1 µM
same,IC50 ± SD,[3],Neg
same,antiviral activity,[8],did not exhibit antiviral activity
same,IC50,[4],9.7 ± 1.5 µM
same,IC50 ± SD,[5],Neg
same,antiviral activity,[9],did not exhibit antiviral activity
same,antiviral activity,[7],did not exhibit antiviral activity
same,IC50,SNB-19 (glioblastoma),13.1 ± 1.3 µM
same,antiviral activity,[10],did not exhibit antiviral activity
C=C(C)C1CCC2(COC(=O)c3cn(C4CC(n5cc(C)c(=O)[nH]c5=O)OC4CO)nn3)CCC3(C)C(CCC4C5(C)CCC(O)C(C)(C)C5CCC43C)C12 (centres unmarked) [Compound 5e],IC50,[2],75.2 ± 3.7 µM
same,IC50 ± SD,[3],Neg
same,CC50 at 48 h,in vitro,10.3 µg/mL
same,IC50,[4],35.1 ± 6.2 µM
same,IC50 ± SD,[5],total decay of cytotoxic activity and Neg
same,MBC:MIC ratio,[11],> 4
same,MBC,[11]; ATCC700603,3.9 µM
same,MIC,"[11]; ATCC700603, 18 h",0.95 µM
same,bactericidal capacity,[11]; judged from MBC:MIC ratio,bacteriostatic
same,inhibition at 50 µg/mL,[6],75%
same,EC50,[7],1 µg/mL
same,SI,[7]; [13],10.3
same,MBC,[12]; ATCC25922,7.8 µM
same,MIC,"[12]; ATCC25922, 18 h",1.95 µM
same,bactericidal capacity,[12]; judged from MBC:MIC ratio,bactericidal activity
same,IC50 ± SD,SNB-19 (glioblastoma),Neg
same,melting point,,181 to 185 °C
same,SI,"[10]; anti-HAdV-5 activity, ratio of CC50 to EC50, data not shown",6
"C=C(C)C1CC[C@]2(COC(=O)c3cn(CCCO)nn3)CC[C@]3(C)C(CCC4[C@@]5(C)CC[C@H](OC(=O)c6cn(CCCO)nn6)C(C)(C)C5CC[C@]43C)C12 (some centres unmarked) [Compound 6h, 3,28-O,O’-Di[1-(3-hydroxypropyl-1H-1,2,3-triazol-4-yl)carbonyl]betulin]",IC50,[2],9.1 ± 0.2 µM
same,IC50,[3],11.7 ± 1.2 µM
same,CC50 at 48 h,in vitro,29.8 µg/mL
same,antiviral activity,[8],essentially inactive
same,IC50,[4],6.5 ± 1 µM
same,IC50,[5],62.4 ± 1.1 µM
same,antiviral activity,[9],essentially inactive
same,inhibition at 50 µg/mL,[6],70%
same,EC50,[7],0.25 µg/mL
same,IC50,SNB-19 (glioblastoma),68.3 ± 0.9 µM
same,melting point,,172 to 176 °C
same,antiviral activity,[10],essentially inactive
"NC(=O)c1ncn([C@@H]2O[C@H](CO)[C@@H](O)[C@H]2O)n1 [Ribavirin, reference compound]",CC50 at 48 h,[1]; A549 cells,100 µg/mL
same,inhibition at 1.5 µg/mL,[6],30%
same,SI,[7],10.0
same,EC50,[7],10 µg/mL
